# In US4481149A, “Fluorine-containing phenyl benzoate compounds, and their production and use” (Daikin Kogyo Co., Ltd., priority 1978, dated 1984):
# Test: Temperature range of liquid crystal (MR)
# Assay type: physicochemical
# Conditions: Table 1
row,SMILES,Temperature (MR) Range of liquid crystal
1,"CCCCCCOc1ccc(C(=O)Oc2ccc(C(F)(F)F)cc2)cc1 [Example 8, p'-trifluoromethylphenyl p-n-hexyloxybenzoate]",74.7-76.5 °C
2,"CCCCCCCOc1ccc(C(=O)Oc2ccc(C(F)(F)F)cc2)cc1 [Example 9, p'-trifluoromethylphenyl p-n-heptyloxybenzoate]",62.9-74.3 °C
3,"CCCCCCCCOc1ccc(C(=O)Oc2ccc(C(F)(F)F)cc2)cc1 [Example 10, p'-trifluoromethylphenyl p-n-octyloxybenzoate]",62.5-72.5 °C
4,"N#Cc1ccc(OC(=O)c2ccc(C(F)(F)C(F)(F)C(F)(C(F)(F)F)C(F)(F)F)cc2)cc1 [Example 12, p'-Cyanophenyl p-(3-trifluoromethylperfluorobutyl)benzoate]",90.0-98.5 °C
5,N#Cc1ccc(OC(=O)c2ccc(C(F)(F)C(F)(F)C(F)(F)C(F)(F)C(F)(C(F)(F)F)C(F)(F)F)cc2)cc1 [Example 13],109.6-121.3 °C
6,N#Cc1ccc(OC(=O)c2ccc(C(F)(F)C(F)(F)C(F)(F)C(F)(F)C(F)(F)C(F)(F)C(F)(C(F)(F)F)C(F)(F)F)cc2)cc1 [Example 14],130.7-140.7 °C
7,N#Cc1ccc(OC(=O)c2ccc(C(F)(F)C(F)(F)C(F)(F)C(F)(F)C(F)(F)C(F)(F)F)cc2)cc1 [Example 15],99.8-123.3 °C
8,N#Cc1ccc(OC(=O)c2ccc(C(F)(F)C(F)(F)C(F)(F)C(F)(F)C(F)(F)C(F)(F)C(F)(F)C(F)(F)F)cc2)cc1 [Example 16],118-145 °C
9,O=C(Oc1ccc([N+](=O)[O-])cc1)c1ccc(C(F)(F)C(F)(F)C(F)(C(F)(F)F)C(F)(F)F)cc1 [Example 20],68.6-79.2 °C

# Same assay, conditions: Table 1; monotropic
row,SMILES,Temperature (MR) Range of liquid crystal
1,CCCCOc1ccc(C(=O)Oc2ccc(C(F)(F)F)cc2)cc1 [C4 H9 O / CF3],93.4 °C
2,"CCCCCOc1ccc(C(=O)Oc2ccc(C(F)(F)F)cc2)cc1 [Example 7, p'-trifluoromethylphenyl p-n-pentyloxybenzoate]",78.5 °C
3,Cc1ccc(OC(=O)c2ccc(C(F)(F)C(F)(F)C(F)(F)C(F)(F)C(F)(F)C(F)(F)C(F)(F)C(F)(F)F)cc2)cc1 [Example 17],111-112 °C
4,CCCCCc1ccc(OC(=O)c2ccc(C(F)(F)C(F)(F)C(F)(C(F)(F)F)C(F)(F)F)cc2)cc1 [Example 18],57-58 °C
5,O=C(Oc1ccc(C(F)(F)F)cc1)c1ccc(C(F)(F)C(F)(F)C(F)(C(F)(F)F)C(F)(F)F)cc1 [Example 19],67.5-68.7 °C

# Now from value to compound:
row,Temperature (MR) Range of liquid crystal,SMILES
1,67.8 °C,"CCCCc1ccc(C(=O)Oc2ccc(C(F)(F)F)cc2)cc1 [Example 1, p'-trifluoromethylphenyl p-n-butylbenzoate]"
2,66.8 °C,"CCCCCc1ccc(C(=O)Oc2ccc(C(F)(F)F)cc2)cc1 [Example 2, p'-trifluoromethylphenyl p-n-pentylbenzoate]"
3,58.8 °C,"CCCCCCc1ccc(C(=O)Oc2ccc(C(F)(F)F)cc2)cc1 [Example 3, p'-trifluoromethylphenyl p-n-hexylbenzoate]"
4,61.0 °C,"CCCCCCCc1ccc(C(=O)Oc2ccc(C(F)(F)F)cc2)cc1 [Example 4, p'-trifluoromethylphenyl p-n-heptylbenzoate]"
5,58.5 °C,"CCCCCCCCc1ccc(C(=O)Oc2ccc(C(F)(F)F)cc2)cc1 [Example 5, p'-trifluoromethylphenyl p-n-octylbenzoate]"
